# Results as given in US20250381196A1 (SHANGHAI YAO YUAN BIOTECHNOLOGY CO., LTD., priority 2022, published 2025).
# Structures can show the parent of a compound that is named as a salt.
# What was measured:
# ALPK1 = ALPK1 (Homo sapiens (Human), UniProt Q96QP1); test: ALPK1 in vitro kinase assay (HTRF of TIFA phosphorylation); assay type: biochemical; details: ALPK1 2 nM activated by ADP-Heptose, TIFA substrate
# Protocol: ALPK1 in vitro Kinase Assay
# ALPK1 kinase activity was measured in an in vitro assay using ADP-Heptose as the ALPK1 ligand and activator of its kinase activity and TIFA protein as the ALPK1 phosphorylation substrate. Since phosphorylated TIFA proteins oligomerize, Homogeneous Time-Resolved Fluorescence (HTRF) was used to measure protein: protein interaction between HA-tagged TIFA proteins as an indicator of TIFA phosphorylation.
# In brief, dose-response studies were performed in 384-well assay plates. Each well contained 0.1 mg TIFA, ALPK1 (2 nM final concentration in reaction mixture) and kinase buffer (100 mM of HEPES pH 7.4, 4 mM DTT, 40 mM MgCl2, 20 mM of β-Glycerol phosphate disodium salt, 0.4 mM of Na3VO4, 0.16 mg/mL). Titrations of the test compounds were prepared in dimethylsulphoxide (DMSO). The reaction was initiated by addition of ATP and ADP-Heptose.
# For HTRF, samples were incubated with a Tb cryptate-labeled anti-HA antibody for capturing HA-tagged proteins according to the manufacturer's instructions (PerkinElmer™, CisBio™) and the fluorescence signal was quantified (Tecan Infinite F NANO+). HTRF signals were calculated as the HTRF ratio (ratio of fluorescence measured at 665 nm and 620 nm)×104 (thereby using the signal at 620 nm as an internal standard).
# IC50 values were determined using 3- or 4-parameter logistic equation using GraphPad Prism version 6.00. The reference compound, A027, was used as a positive control for each plate.
# [1] = tested on: ALPK1-dependent NFκB reporter gene activation in HEK293 cells stably expressing an NF-kB reporter (G9 cells); test: NFκB gene reporter alkaline phosphatase assay; assay type: cell-based; details: Homo sapiens, read-out: NFKB assay IC50
# Protocol: NFκB Gene Reporter Alkaline Phosphatase Assay
# An alkaline phosphatase reporter assay system was used to measure inhibition of ALPK1-dependent NFκB reporter gene activation. Briefly, HEK293 cells stably expressing an NF-kB reporter (referred to herein as “G9 cells”) were maintained in Dulbecco's Modified Eagle Medium (DMEM) supplemented with 10% fetal bovine serum (FBS, Hyclone™) containing antibiotics (pen/strep, G418) […]. For the assay, cells were seeded into 96-well plates at a density of 10,000 cells/well in Freestyle™ 293 Expression Medium (ThermoFisher) and allowed to attach overnight. […] NFkB gene activation was detected using the chromogenic substrate, para-nitrophenyl phosphate (pNPP) according to the manufacturer's protocols (pNPP Phosphatase Assay, Beyotime Biotechnology).
# [2] = tested on: lupus nephritis in MRL/MpJ-Faslpr/J mice; test: MRL/MpJ-Faslpr/J mouse lupus nephritis model; assay type: in vivo
# Excerpt: After 8 weeks of treatment, the animals were sacrificed, and their urine was collected for proteinuria assessment using Urine Protein Test Strips (FIG. 9). The right kidneys were harvested and stained by hematoxylin and eosin (H&E) for pathological evaluation (FIG. 10A-G).
# [3] = tested on: adenine diet induced rat CKD model
# Excerpt: We started compound dosing from day 14 after adenine diet inception for 6 weeks. During the study, we collected plasma and measure the Blood Urea Nitrogen (BUN) (FIG. 6A) and creatine (FIG. 6B) level weekly.
# [4] = tested on: ALPK1-dependent gene expression in kidney; test: Inhibition of ALPK1 in kidney: ALPK1 agonist-induced gene expression in rats; assay type: in vivo, Sprague-Dawley (SD) rats; details: SD rats, oral 2, 5, 10, 20 mpk 21 h before ip ALPK1 agonist, kidneys 3 h after agonist; relative to vehicle group
# [5] = tested on: UUO induced kidney fibrosis; details: rat UUO
# Excerpt: Briefly, we ligated the left ureter of rat and then start the daily oral treatment right after the surgery for 7 days, and then measure the kidney fibrosis by hydroxyproline content measurement and Sirus red staining. Because of the amount of renal inflammation, we used hydroxyproline (OH-P) content indexed to total protein for interpretation of UUO-induced fibrosis and compound efficacy (FIG. 3A) For completeness, we also analyzed the OH-P content indexed to tissue mass (FIG. 3B).
# [6] = 10 mg/kg oral daily, 8 weeks, kidney H&E
# [7] = daily oral treatment for 7 days, C008 at 7 mpk & 20 mpk
# ALPK1, sequence (Q96QP1 whole entry): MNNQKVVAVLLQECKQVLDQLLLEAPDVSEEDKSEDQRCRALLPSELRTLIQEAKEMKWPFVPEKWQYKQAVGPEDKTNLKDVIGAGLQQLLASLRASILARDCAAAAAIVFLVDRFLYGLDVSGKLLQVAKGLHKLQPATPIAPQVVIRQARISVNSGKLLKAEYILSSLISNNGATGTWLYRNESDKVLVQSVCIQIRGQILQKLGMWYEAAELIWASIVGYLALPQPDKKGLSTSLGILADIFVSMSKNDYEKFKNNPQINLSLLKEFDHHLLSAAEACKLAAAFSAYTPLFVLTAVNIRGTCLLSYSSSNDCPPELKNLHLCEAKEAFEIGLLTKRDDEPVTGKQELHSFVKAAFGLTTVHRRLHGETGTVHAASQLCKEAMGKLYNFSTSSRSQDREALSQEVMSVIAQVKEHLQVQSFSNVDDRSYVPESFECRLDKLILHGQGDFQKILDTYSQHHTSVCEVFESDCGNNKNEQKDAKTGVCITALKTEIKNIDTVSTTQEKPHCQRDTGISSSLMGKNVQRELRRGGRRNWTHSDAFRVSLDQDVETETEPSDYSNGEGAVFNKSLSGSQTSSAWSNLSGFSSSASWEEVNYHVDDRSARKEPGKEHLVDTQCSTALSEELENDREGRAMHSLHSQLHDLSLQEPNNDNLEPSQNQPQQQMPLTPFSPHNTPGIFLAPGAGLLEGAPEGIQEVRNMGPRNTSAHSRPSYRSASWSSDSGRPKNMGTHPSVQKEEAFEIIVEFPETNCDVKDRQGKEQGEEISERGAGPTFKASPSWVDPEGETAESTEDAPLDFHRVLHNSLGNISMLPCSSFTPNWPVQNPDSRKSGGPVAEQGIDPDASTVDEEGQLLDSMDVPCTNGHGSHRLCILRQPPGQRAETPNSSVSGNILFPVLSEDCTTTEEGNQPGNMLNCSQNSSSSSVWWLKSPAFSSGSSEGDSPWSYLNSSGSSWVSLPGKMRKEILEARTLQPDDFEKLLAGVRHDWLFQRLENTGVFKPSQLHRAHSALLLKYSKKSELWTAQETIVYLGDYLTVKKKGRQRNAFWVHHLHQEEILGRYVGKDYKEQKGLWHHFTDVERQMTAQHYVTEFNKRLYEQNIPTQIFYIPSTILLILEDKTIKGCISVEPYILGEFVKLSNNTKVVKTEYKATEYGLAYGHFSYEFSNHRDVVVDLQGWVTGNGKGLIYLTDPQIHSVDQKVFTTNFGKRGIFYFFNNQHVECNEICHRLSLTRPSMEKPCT
compound,measurement,setting,value
"C#C[C@@](C)(c1ccc(F)cc1)c1csc(NC(=O)c2ccc(N3CCNCC3CO)cc2)n1 (stereo in doubt) [Example B070, N-[4-[1-(4-fluorophenyl)-1-methyl-prop-2-ynyl]thiazol-2-yl]-4-[2-(hydroxymethyl)piperazin-1-yl]benzamide]",IC50,ALPK1,0.169 µM
"C#C[C@](C)(c1ccc(Cl)cc1)c1csc(NC(=O)c2c(F)cc(N3CCN(C)CC3)cc2F)n1 (stereo in doubt) [Example C009, N-(4-(2-(4-chlorophenyl)but-3-yn-2-yl)thiazol-2-yl)-2,6-difluoro-4-(4-methylpiperazin-1-yl)benzamide]",IC50,ALPK1,0.007 µM
"C#C[C@](C)(c1ccc(Cl)cc1)c1nc(NC(=O)c2c(F)cc(N3CCNCC3)cc2F)sc1Cl (stereo in doubt) [Example C050, N-(5-chloro-4-(2-(4-chlorophenyl)but-3-yn-2-yl)thiazol-2-yl)-2,6-difluoro-4-(piperazin-1-yl)benzamide]",IC50,ALPK1,0.923 µM
"COc1ccc(C(C)(C)c2csc(NC(=O)NCc3cc(F)c(C4CCNCC4)c(F)c3)n2)cc1 [Example A151, 1-(3,5-difluoro-4-(piperidin-4-yl)benzyl)-3-(4-(2-(4-methoxyphenyl)propan-2-yl)thiazol-2-yl)urea hydrochloride]",IC50,[1],0.95 µM
"COc1ccc(C(C)(C)c2csc(NC(=O)NCc3cc(F)c(N4CCNCC4)cc3F)n2)cc1 [Example A231, 1-(2,5-difluoro-4-(piperazin-1-yl)benzyl)-3-(4-(2-(4-methoxyphenyl)propan-2-yl)thiazol-2-yl)urea hydrochloride]",IC50,[1],3.36 µM
"COc1ccc(C(C)(C)c2csc(NC(=O)N3CC(c4ccc(N5CCNCC5)cc4)C3)n2)cc1 [Example A233, N-(4-(2-(4-methoxyphenyl)propan-2-yl)thiazol-2-yl)-3-(4-(piperazin-1-yl)phenyl)azetidine-1-carboxamide]",IC50,[1],0.33 µM
"COc1ccc(C(C)(C)c2csc(NC(=O)c3ccc(N4CCC(O)C4)cc3)n2)cc1 (centres unmarked) [Example B009, 4-(3-hydroxypyrrolidin-1-yl)-N-(4-(2-(4-methoxyphenyl)propan-2-yl)thiazol-2-yl)benzamide]",IC50,ALPK1,0.095 µM
COc1ccc(C(C)(C)c2csc(NC(=O)c3ccc(N4CCNCC4C)cc3)n2)cc1 (centres unmarked) [Example B014],IC50,ALPK1,0.3 µM
"C#C[C@@](C)(c1ccc(Cl)cc1)c1csc(NC(=O)c2c(F)cc(N3CCNCC3)cc2F)n1 [Example C008, (S)-N-(4-(2-(4-chlorophenyl)but-3-yn-2-yl)thiazol-2-yl)-2,6-difluoro-4-(piperazin-1-yl)benzamide]",proteinuria scores,"[2]; 10 mg/kg oral daily, 8 weeks, compared to vehicle disease group",significant reduction
same,pathological score: crescent,[2]; [6],significantly lower
same,pathological score: glomerulus diameter,[2]; [6],significantly lower
same,pathological score: interstitial inflammation,[2]; [6],significantly lower
same,pathological score: protein cast,[2]; [6],significantly lower
same,"mRNA expression of Ccl2, Ccl4, Ccl5, Ccr1 and IL-6 in kidney","[2]; left kidneys, qPCR, after 8 weeks, relative to vehicle group",significant decreases
same,adenine-induced increases in renal cortical CVF,"[3]; rat adenine diet, end of study, C008 at 7 and 20 mpk",attenuated
same,adenine-induced increases in plasma creatinine,"[3]; rat adenine diet, ALK5i: days 35-56, C008: days 35 (20 mpk), 49 & 56 (7&20 mpk)",attenuated
same,adenine-induced increases in plasma BUN,"[3]; rat adenine diet, ALK5i: days 35-56, C008: days 42 (20 mpk), 49 (7&20 mpk), 56 (20 mpk)",attenuated
same,adenine diet induced kidney dysfunction and kidney fibrosis,"[3]; rat, C008 7, 20 mg/kg, dosing from day 14 for 6 weeks",significantly inhibit
same,"mRNA expression for CCL-2, CCL-7, CXCL-1, CXCL-10, IL-1β and IL-6 in kidney",[4],significant decreases
same,UUO induced kidney fibrosis,"[5]; C008 2, 7, 20 mg/kg",dose dependently suppress
same,"UUO-induced increases in renal cortical CVF (Collagen Volume Fraction, Sirus Red)",[5]; [7],attenuated
same,UUO-induced increases in renal cortical OH-P (hydroxyproline),[5]; [7],attenuated
same,kidney expression of genes involved in fibrosis and inflammation,"[5]; separate study, C008 5, 10, 20 mg/kg",inhibited
